Reference: article PMC4404333, “Identification of Selective Inhibitors of the Plasmodium falciparum Hexose Transporter PfHT by Screening Focused Libraries of Anti-Malarial Compounds” (PLoS ONE, 2015)

Tests used:
[1] = system: BJ cell line (human foreskin fibroblasts); experiment: Mammalian cell drug susceptibility assay (Cell Titer Glo, 72 h); type: cell-based
Method: The BJ cell line (human foreskin fibroblasts), which express GLUT1 [26], was purchased from the ATTC and cultured according to recommendations. 1000 exponentially growing cells were plated per well (25 μL) in white polystyrene flat bottom sterile 384-well tissue culture treated plates (Corning), and incubated overnight at 37°C in a humidified 5% CO2 incubator. DMSO inhibitor stock solutions were pin-transferred (V&P Scientific) the following day. Plates were placed back in the incubator for 72 h incubation and equilibrated at room temperature for 20 min before addition of 25 μL Cell Titer Glo (Promega) to each well. Plates were shaken on an orbital shaker for 2 min at 500 rpm. Luminescence was read after 15 min on an Envision plate reader (Perkin Elmer). EC50 values were calculated with a custom program (RISE, Robust Investigation of Screening Experiments) using a four-parameter logistic equation.

[2] = system: intraerythrocytic P. falciparum parasites; set-up: method as in PMID 12792024; details: read-out: IC50 growth of intraerythrocytic P. falciparum parasites in vitro; cited from earlier work
P. berghei parasites = system: P. berghei parasites; set-up: method as in PMID 12792024; details: mice infected with P. berghei, 25 mg/kg (i.p.) twice daily; cited from earlier work
[3] = system: hepatic stage and ookinetes of P. berghei; set-up: method as in PMID 21169382, PMID 21402842; details: cited from earlier work
PfHT = PfHT (Plasmodium falciparum, UniProt Q7KWJ5); details: read-out: Ki for glucose uptake by PfHT; cited from earlier work
human GLUT1 = target: T1, human GLUT1 (Homo sapiens, UniProt P11166); details: 1 mM concentration; cited from earlier work
T1 sequence (P11166 1-492): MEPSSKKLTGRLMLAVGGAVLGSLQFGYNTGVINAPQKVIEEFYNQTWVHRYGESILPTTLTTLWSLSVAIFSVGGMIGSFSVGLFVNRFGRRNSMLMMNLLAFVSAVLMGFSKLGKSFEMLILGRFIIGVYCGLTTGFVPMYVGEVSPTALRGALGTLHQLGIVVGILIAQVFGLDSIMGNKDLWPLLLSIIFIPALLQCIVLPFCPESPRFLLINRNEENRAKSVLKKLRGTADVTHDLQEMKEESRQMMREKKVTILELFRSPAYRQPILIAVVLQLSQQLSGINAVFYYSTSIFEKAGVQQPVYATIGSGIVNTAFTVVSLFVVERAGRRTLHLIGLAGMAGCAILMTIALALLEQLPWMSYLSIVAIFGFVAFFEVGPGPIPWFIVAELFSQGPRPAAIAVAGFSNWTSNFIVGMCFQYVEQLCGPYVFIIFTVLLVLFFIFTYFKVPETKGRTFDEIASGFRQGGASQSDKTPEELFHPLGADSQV

Sequence of PfHT (Q7KWJ5 whole entry): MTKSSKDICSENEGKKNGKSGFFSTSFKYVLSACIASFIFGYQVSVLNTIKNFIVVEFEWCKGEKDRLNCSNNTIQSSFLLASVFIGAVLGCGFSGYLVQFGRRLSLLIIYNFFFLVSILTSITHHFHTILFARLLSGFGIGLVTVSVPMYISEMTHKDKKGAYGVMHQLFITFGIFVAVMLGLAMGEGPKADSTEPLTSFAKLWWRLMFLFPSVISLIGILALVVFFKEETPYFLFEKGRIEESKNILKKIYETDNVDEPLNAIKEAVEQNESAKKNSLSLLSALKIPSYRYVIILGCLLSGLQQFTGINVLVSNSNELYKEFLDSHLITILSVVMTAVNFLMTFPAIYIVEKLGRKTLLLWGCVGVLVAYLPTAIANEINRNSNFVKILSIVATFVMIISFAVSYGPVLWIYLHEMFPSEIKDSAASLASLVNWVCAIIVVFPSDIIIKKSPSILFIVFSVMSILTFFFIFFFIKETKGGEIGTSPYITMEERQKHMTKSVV

| SMILES | EC50 [1] [µM] | IC50 [2] [µM] | reduction in parasitemia (P. berghei parasites) [%] | inhibition of viability of liver and mosquito stages [3] | Ki (PfHT) [µM] | inhibition of GLUT1 (human GLUT1) |
| --- | --- | --- | --- | --- | --- | --- |
| CC(C)=CCC[C@]1(C)C=Cc2c(O)c3c(c(CC=C(C)C)c2O1)O[C@]12C(=C[C@@H]4C[C@H]1C(C)(C)O[C@@]2(C/C=C(/C)C(=O)O)C4=O)C3=O [Gambogic acid, gambogic acid, reference compound] | 2.5 |  |  |  |  |  |
| C=CCCCCCCCCCO[C@@H]([C@H](O)[C@H](O)CO)[C@@H](O)C=O [compound 3361, 3-O-((undec-10-en)-1-yl)-D-glucose] |  | 15.7 | 40 | strong inhibition of viability | 53 | no significant inhibition |
